Data: the kinase profiling compilation of Christmann-Franck et al. (2016)

Key:
Experiment in all cases: KINOMEscan competition binding
Conditions in all cases: compound 10.0 µM
PDGFRA (human) = PDGFRA (human) (UniProt P16234)
MAPK4 (human) = MAPK4 (human) (UniProt P31152)
TAOK3 (human) = TAOK3 (human) (UniProt Q9H2K8)
STK17A (human) = STK17A (human) (UniProt Q9UEE5)
HIPK1 (human) = HIPK1 (human) (UniProt Q86Z02)
STK25 (human) = STK25 (human) (UniProt O00506)
ACVR1B (human) = ACVR1B (human) (UniProt P36896)
TIE1 (human) = TIE1 (human) (UniProt P35590)
SRPK3 (human) = SRPK3 (human) (UniProt Q9UPE1)
FLT3 (human) = FLT3 (human) (UniProt P36888)
MAPKAPK2 (human) = MAPKAPK2 (human) (UniProt P49137)
RET (human) = RET (human) (UniProt P07949)
RET (human), sequence (P07949 whole entry, looked up): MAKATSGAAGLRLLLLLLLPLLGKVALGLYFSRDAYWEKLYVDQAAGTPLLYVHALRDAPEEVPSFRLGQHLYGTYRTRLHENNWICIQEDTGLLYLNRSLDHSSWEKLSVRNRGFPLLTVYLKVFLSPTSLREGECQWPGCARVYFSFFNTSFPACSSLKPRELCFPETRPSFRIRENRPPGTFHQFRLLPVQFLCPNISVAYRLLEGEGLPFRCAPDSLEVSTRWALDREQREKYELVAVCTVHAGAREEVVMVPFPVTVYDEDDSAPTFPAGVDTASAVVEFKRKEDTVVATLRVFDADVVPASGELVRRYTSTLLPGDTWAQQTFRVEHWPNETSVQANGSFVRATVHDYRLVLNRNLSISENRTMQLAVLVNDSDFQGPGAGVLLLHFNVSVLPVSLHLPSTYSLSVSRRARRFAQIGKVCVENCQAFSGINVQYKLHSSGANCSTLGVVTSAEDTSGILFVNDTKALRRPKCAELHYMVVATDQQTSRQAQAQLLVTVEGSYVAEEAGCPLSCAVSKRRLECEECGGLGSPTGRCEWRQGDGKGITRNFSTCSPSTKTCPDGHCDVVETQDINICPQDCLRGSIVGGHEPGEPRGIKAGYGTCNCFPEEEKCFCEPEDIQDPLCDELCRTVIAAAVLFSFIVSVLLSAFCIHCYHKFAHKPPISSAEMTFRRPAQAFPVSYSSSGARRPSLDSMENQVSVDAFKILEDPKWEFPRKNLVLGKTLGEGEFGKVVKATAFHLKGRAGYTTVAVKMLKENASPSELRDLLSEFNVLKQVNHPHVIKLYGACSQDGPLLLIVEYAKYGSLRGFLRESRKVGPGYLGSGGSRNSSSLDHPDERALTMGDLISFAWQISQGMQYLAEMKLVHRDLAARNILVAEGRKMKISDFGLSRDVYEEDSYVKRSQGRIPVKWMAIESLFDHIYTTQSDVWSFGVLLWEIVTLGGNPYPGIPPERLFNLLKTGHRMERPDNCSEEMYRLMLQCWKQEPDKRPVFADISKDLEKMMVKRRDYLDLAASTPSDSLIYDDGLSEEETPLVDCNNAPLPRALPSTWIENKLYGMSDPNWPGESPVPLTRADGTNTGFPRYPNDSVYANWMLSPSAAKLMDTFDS

PRKAA1 (human) = PRKAA1 (human) (UniProt Q13131)
FGFR1 (human) = FGFR1 (human) (UniProt P11362)
CDK3 (human) = CDK3 (human) (UniProt Q00526)
CDK3 (human), sequence (Q00526 whole entry, looked up): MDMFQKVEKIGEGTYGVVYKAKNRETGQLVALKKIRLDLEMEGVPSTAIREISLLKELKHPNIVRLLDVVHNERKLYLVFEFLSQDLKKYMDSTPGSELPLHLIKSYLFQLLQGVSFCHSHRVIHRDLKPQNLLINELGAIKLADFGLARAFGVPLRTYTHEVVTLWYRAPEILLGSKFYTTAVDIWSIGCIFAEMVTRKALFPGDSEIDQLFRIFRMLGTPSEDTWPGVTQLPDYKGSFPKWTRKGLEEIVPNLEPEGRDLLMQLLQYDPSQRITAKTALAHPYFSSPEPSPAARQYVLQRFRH

SIK1 (human) = SIK1 (human) (UniProt P57059)
PRKG2 (human) = PRKG2 (human) (UniProt Q13237)
CDC42BPA (human) = CDC42BPA (human) (UniProt Q5VT25)
IKBKB (human) = IKBKB (human) (UniProt O14920)
MAP3K7 (human) = MAP3K7 (human) (UniProt O43318)
TNNI3K (human) = TNNI3K (human) (UniProt Q59H18)
BMPR1A (human) = BMPR1A (human) (UniProt P36894)
PRKAA2 (human) = PRKAA2 (human) (UniProt P54646)
CDK15 (human) = CDK15 (human) (UniProt Q96Q40)
[1] = target: TYK2 JH2 pseudokinase (human) (UniProt P29597)
PRKCE (human) = PRKCE (human) (UniProt Q02156)
STK36 (human) = STK36 (human) (UniProt Q9NRP7)
MAPK10 (human) = MAPK10 (human) (UniProt P53779)
MAPK10 (human), sequence (P53779 whole entry, looked up): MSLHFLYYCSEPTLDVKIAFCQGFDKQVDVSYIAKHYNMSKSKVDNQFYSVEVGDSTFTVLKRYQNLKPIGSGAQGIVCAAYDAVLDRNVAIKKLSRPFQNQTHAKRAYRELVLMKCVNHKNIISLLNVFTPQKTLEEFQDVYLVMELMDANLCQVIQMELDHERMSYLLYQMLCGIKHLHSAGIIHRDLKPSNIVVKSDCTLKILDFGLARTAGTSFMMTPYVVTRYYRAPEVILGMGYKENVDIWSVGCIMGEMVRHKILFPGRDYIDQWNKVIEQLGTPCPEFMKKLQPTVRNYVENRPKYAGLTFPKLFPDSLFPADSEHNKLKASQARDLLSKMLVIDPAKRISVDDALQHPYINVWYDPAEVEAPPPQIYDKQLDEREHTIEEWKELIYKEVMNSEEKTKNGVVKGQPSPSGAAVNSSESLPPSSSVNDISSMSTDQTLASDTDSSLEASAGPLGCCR

MARK1 (human) = MARK1 (human) (UniProt Q9P0L2)
MARK1 (human), sequence (Q9P0L2 whole entry, looked up): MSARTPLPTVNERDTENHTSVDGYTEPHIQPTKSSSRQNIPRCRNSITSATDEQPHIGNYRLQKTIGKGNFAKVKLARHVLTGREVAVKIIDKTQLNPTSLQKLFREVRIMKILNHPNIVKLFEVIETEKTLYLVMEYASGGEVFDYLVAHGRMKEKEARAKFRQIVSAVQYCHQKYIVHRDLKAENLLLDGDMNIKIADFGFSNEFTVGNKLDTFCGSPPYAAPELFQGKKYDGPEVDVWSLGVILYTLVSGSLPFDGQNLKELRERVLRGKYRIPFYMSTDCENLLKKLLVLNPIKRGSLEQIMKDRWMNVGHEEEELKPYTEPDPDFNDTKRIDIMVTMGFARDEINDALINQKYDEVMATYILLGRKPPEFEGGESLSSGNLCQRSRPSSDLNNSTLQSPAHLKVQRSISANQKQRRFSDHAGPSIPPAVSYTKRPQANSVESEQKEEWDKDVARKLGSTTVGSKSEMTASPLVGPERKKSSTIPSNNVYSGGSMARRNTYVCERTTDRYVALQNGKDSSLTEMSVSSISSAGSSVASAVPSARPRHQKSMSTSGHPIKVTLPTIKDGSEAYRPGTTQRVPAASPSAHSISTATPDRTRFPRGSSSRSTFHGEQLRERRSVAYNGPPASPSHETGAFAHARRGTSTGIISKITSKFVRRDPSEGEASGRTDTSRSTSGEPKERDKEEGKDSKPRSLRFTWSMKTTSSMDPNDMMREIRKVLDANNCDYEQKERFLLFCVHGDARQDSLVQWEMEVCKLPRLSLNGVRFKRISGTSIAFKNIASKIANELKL

NLK (human) = NLK (human) (UniProt Q9UBE8)
CLK1 (human) = CLK1 (human) (UniProt P49759)
CSK (human) = CSK (human) (UniProt P41240)
CSK (human), sequence (P41240 whole entry, looked up): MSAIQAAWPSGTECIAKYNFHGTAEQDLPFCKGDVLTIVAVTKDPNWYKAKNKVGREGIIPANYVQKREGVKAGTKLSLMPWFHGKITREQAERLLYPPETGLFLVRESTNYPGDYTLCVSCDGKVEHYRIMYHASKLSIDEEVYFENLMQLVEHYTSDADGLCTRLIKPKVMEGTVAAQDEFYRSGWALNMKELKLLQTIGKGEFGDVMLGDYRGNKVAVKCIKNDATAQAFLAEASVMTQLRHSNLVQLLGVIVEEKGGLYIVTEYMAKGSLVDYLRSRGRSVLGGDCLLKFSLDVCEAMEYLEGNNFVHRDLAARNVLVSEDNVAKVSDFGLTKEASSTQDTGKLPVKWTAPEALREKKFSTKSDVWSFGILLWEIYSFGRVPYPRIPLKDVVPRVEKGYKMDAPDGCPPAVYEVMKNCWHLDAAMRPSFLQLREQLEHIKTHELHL

PIM3 (human) = PIM3 (human) (UniProt Q86V86)
MAP3K4 (human) = MAP3K4 (human) (UniProt Q9Y6R4)
MAP3K5 (human) = MAP3K5 (human) (UniProt Q99683)
MAP3K5 (human), sequence (Q99683 whole entry, looked up): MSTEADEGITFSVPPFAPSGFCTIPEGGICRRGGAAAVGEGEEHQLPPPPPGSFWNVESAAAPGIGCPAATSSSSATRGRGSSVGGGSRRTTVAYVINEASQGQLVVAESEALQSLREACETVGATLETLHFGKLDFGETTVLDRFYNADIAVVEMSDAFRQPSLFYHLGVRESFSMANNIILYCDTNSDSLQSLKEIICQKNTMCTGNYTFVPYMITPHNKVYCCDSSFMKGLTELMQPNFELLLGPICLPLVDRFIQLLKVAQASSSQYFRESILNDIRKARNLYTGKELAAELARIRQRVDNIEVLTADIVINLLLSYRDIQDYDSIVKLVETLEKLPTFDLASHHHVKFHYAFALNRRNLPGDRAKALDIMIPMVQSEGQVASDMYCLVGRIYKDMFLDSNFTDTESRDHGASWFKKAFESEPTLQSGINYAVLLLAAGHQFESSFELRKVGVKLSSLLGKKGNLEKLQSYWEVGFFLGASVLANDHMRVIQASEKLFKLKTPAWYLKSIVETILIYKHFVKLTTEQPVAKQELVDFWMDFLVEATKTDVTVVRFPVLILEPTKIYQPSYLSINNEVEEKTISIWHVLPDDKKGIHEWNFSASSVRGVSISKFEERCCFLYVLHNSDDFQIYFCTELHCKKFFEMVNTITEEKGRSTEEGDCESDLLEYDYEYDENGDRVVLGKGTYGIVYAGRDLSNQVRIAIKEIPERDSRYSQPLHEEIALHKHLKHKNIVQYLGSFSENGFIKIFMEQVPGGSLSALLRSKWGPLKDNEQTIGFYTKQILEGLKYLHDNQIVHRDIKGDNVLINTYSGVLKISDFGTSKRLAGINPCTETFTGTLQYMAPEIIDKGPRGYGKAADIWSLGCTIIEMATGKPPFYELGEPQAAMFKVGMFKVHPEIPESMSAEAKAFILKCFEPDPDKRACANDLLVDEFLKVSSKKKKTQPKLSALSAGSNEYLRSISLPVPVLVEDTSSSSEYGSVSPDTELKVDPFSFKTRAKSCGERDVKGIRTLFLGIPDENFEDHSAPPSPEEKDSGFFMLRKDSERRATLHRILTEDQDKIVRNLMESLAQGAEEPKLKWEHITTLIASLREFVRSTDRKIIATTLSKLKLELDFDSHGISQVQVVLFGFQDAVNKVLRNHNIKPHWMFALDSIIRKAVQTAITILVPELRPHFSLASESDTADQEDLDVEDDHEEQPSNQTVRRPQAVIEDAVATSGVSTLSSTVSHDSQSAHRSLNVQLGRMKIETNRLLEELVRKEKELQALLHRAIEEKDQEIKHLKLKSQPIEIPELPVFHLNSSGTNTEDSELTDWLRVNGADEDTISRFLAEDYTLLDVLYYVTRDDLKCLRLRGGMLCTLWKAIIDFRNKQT

PIM2 (human) = PIM2 (human) (UniProt Q9P1W9)

Structure (SMILES): Cc1n[nH]c2ccc(-c3cncc(OC[C@@H](N)Cc4c[nH]c5ccccc45)c3)cc12
- kinase still bound, per cent of control (PDGFRA (human)): 100%
- kinase still bound, per cent of control (MAPK4 (human)): 100%
- kinase still bound, per cent of control (TAOK3 (human)): 0.1%
- kinase still bound, per cent of control (STK17A (human)): 5.4%
- kinase still bound, per cent of control (HIPK1 (human)): 0.05%
- kinase still bound, per cent of control (STK25 (human)): 100%
- kinase still bound, per cent of control (ACVR1B (human)): 100%
- kinase still bound, per cent of control (TIE1 (human)): 31%
- kinase still bound, per cent of control (SRPK3 (human)): 0.95%
- kinase still bound, per cent of control (FLT3 (human)): 4.5%
- kinase still bound, per cent of control (MAPKAPK2 (human)): 100%
- kinase still bound, per cent of control (RET (human)): 100%
- kinase still bound, per cent of control (PRKAA1 (human)): 100%
- kinase still bound, per cent of control (FGFR1 (human)): 100%
- kinase still bound, per cent of control (CDK3 (human)): 22%
- kinase still bound, per cent of control (SIK1 (human)): 100%
- kinase still bound, per cent of control (PRKG2 (human)): 5.7%
- kinase still bound, per cent of control (CDC42BPA (human)): 6.6%
- kinase still bound, per cent of control (IKBKB (human)): 34%
- kinase still bound, per cent of control (MAP3K7 (human)): 3.2%
- kinase still bound, per cent of control (TNNI3K (human)): 100%
- kinase still bound, per cent of control (BMPR1A (human)): 100%
- kinase still bound, per cent of control (PRKAA2 (human)): 100%
- kinase still bound, per cent of control (CDK15 (human)): 16%
- kinase still bound, per cent of control [1]: 100%
- kinase still bound, per cent of control (PRKCE (human)): 0%
- kinase still bound, per cent of control (STK36 (human)): 100%
- kinase still bound, per cent of control (MAPK10 (human)): 25%
- kinase still bound, per cent of control (MARK1 (human)): 100%
- kinase still bound, per cent of control (NLK (human)): 100%
- kinase still bound, per cent of control (CLK1 (human)): 0%
- kinase still bound, per cent of control (CSK (human)): 100%
- kinase still bound, per cent of control (PIM3 (human)): 0.75%
- kinase still bound, per cent of control (MAP3K4 (human)): 100%
- kinase still bound, per cent of control (MAP3K5 (human)): 100%
- kinase still bound, per cent of control (PIM2 (human)): 1.2%

Structure (SMILES): CNC(=O)c1ccc(Nc2cc(Nc3ccccc3S(=O)(=O)C(C)C)c3cc[nH]c3n2)nc1
- kinase still bound, per cent of control (PDGFRA (human)): 100%
- kinase still bound, per cent of control (MAPK4 (human)): 100%
- kinase still bound, per cent of control (TAOK3 (human)): 2%
- kinase still bound, per cent of control (STK17A (human)): 100%
- kinase still bound, per cent of control (HIPK1 (human)): 100%
- kinase still bound, per cent of control (STK25 (human)): 100%
- kinase still bound, per cent of control (ACVR1B (human)): 100%
- kinase still bound, per cent of control (TIE1 (human)): 0.2%
- kinase still bound, per cent of control (SRPK3 (human)): 12%
- kinase still bound, per cent of control (FLT3 (human)): 2.4%
- kinase still bound, per cent of control (MAPKAPK2 (human)): 100%
- kinase still bound, per cent of control (RET (human)): 3.8%
- kinase still bound, per cent of control (PRKAA1 (human)): 4.6%
- kinase still bound, per cent of control (FGFR1 (human)): 11%
- kinase still bound, per cent of control (CDK3 (human)): 100%
- kinase still bound, per cent of control (SIK1 (human)): 11%
- kinase still bound, per cent of control (PRKG2 (human)): 25%
- kinase still bound, per cent of control (CDC42BPA (human)): 100%
- kinase still bound, per cent of control (IKBKB (human)): 100%
- kinase still bound, per cent of control (MAP3K7 (human)): 0.35%
- kinase still bound, per cent of control (TNNI3K (human)): 100%
- kinase still bound, per cent of control (BMPR1A (human)): 100%
- kinase still bound, per cent of control (PRKAA2 (human)): 8.9%
- kinase still bound, per cent of control (CDK15 (human)): 18%
- kinase still bound, per cent of control [1]: 0.95%
- kinase still bound, per cent of control (PRKCE (human)): 18%
- kinase still bound, per cent of control (STK36 (human)): 100%
- kinase still bound, per cent of control (MAPK10 (human)): 17%
- kinase still bound, per cent of control (MARK1 (human)): 26%
- kinase still bound, per cent of control (NLK (human)): 100%
- kinase still bound, per cent of control (CLK1 (human)): 0.15%
- kinase still bound, per cent of control (CSK (human)): 100%
- kinase still bound, per cent of control (PIM3 (human)): 100%
- kinase still bound, per cent of control (MAP3K4 (human)): 100%
- kinase still bound, per cent of control (MAP3K5 (human)): 100%
- kinase still bound, per cent of control (PIM2 (human)): 100%

Structure (SMILES): CCN(CC)CCCCNc1ncc2cc(-c3cc(OC)cc(OC)c3)c(NC(=O)NC(C)(C)C)nc2n1
- kinase still bound, per cent of control (PDGFRA (human)): 100%
- kinase still bound, per cent of control (MAPK4 (human)): 100%
- kinase still bound, per cent of control (STK17A (human)): 100%
- kinase still bound, per cent of control (STK25 (human)): 9.4%
- kinase still bound, per cent of control (ACVR1B (human)): 100%
- kinase still bound, per cent of control (TIE1 (human)): 12%
- kinase still bound, per cent of control (FLT3 (human)): 100%
- kinase still bound, per cent of control (MAPKAPK2 (human)): 100%
- kinase still bound, per cent of control (RET (human)): 26%
- kinase still bound, per cent of control (PRKAA1 (human)): 100%
- kinase still bound, per cent of control (FGFR1 (human)): 0.4%
- kinase still bound, per cent of control (CDK3 (human)): 100%
- kinase still bound, per cent of control (SIK1 (human)): 100%
- kinase still bound, per cent of control (PRKG2 (human)): 100%
- kinase still bound, per cent of control (CDC42BPA (human)): 100%
- kinase still bound, per cent of control (TNNI3K (human)): 100%
- kinase still bound, per cent of control (PRKAA2 (human)): 100%
- kinase still bound, per cent of control (PRKCE (human)): 100%
- kinase still bound, per cent of control (STK36 (human)): 100%
- kinase still bound, per cent of control (MAPK10 (human)): 100%
- kinase still bound, per cent of control (MARK1 (human)): 100%
- kinase still bound, per cent of control (NLK (human)): 100%
- kinase still bound, per cent of control (CLK1 (human)): 100%
- kinase still bound, per cent of control (CSK (human)): 100%
- kinase still bound, per cent of control (PIM3 (human)): 100%
- kinase still bound, per cent of control (MAP3K4 (human)): 100%
- kinase still bound, per cent of control (MAP3K5 (human)): 100%
- kinase still bound, per cent of control (PIM2 (human)): 100%
